The record followed here is patent US6440996B1, “Monomeric and dimeric heterocycles, and therapeutic uses thereof” (priority 1998, dated 2002).

Data set [1] has as its target T1, dopamine transporter (Rattus norvegicus, UniProt P23977).
T1 construct: from tissue; P2 synaptosomes for uptake
In words: [3H]WIN 35,428 binding to rat striatal membranes / dopamine transporter binding (DAT). On the procedure: (§1) Determination of inhibitory binding potencies of analogues at dopamine, serotonin, and norepinephrine transporters are carried out using standard receptor binding assays which are known in the art.
A. Dopamine Transporter Binding (DAT)

The target in data set [2] is norepinephrine transporter (Rattus norvegicus, UniProt Q9WTR4). In words: Norepinephrine transporter binding (NET). Here is the method: as §1
C. Norepinephrine Transporter Binding (NET)
J. Med Chem., 36, 2886-2890.

Another data set deals with serotonin transporter (Rattus norvegicus, UniProt P31652). In words: Serotonin transporter binding (5-HTT). Here is the method:
as §1
B. Serotonin Transporter Binding (5-HTT)
Mol. Pharmacol., 39, 339.

In data set [3] the target is T1, dopamine transporter. Nature of the data set: Inhibition of high-affinity [3H]dopamine uptake into rat striatal nerve endings (synaptosomes). It is filed as biochemical. On the procedure: A. [^3H]Dopamine Uptake Studies
The effect of candidate compounds in antagonizing dopamine high-affinity uptake was determined using a method previously employed. For [^3H]DA uptake, dissected rat striata were homogenized with a Teflon-glass pestle in ice-cold 0.32 M sucrose and centrifuged for 10 min at 1000×g. The supernatant was centrifuged at 17,500×g for 20 min. This P2 synaptosomal pellet was resuspended in 30 volumes of ice-cold modified KRH buffer. An aliquot of the synaptosomal suspension was preincubated with the buffer and drug for 30 min at 37° C., and uptake initiated by the addition of [^3H]dopamine (5 nM, final concentration). After 5 min, uptake was terminated by adding 5 mL of cold buffer containing glucosamine as a substitute for NaCl and then finally by rapid vacuum filtration over GF-C glass fiber filters, followed by washing with two 5 mL volumes of ice-cold, sodium-free buffer. Radioactivity retained on the filters was determined by liquid scintillation spectrometry. […] It is identical to that calculated by subtracting the mean of identical tubes incubated at 0° C.

Setting [4] is: Table 2, read-out: DAT IC50 (nm).
[5] abbreviates: Table 2, read-out: NET IC50 (nm).
[6] abbreviates: IC50 (nM) [3H]WIN 35,428 binding, rat striatal membranes, Table 1.
Where [7] appears, read: Table 2, unit inferred, read-out: Dopamine Uptake.
Setting [8] is: rat striatal synaptosomes, Table 1, read-out: IC50 (nM) [3H]dopamine uptake.
[9] abbreviates: Table 2, read-out: 5-HTT IC50 (nm).
Setting [10] is: rat striatal membranes, Table 1, read-out: IC50 (nM) [3H]WIN 35,428 binding.

Counter-ions that a name gives are not always drawn. Like-named read-outs stand apart in the source and are kept apart here.

T1 sequence (P23977 whole entry): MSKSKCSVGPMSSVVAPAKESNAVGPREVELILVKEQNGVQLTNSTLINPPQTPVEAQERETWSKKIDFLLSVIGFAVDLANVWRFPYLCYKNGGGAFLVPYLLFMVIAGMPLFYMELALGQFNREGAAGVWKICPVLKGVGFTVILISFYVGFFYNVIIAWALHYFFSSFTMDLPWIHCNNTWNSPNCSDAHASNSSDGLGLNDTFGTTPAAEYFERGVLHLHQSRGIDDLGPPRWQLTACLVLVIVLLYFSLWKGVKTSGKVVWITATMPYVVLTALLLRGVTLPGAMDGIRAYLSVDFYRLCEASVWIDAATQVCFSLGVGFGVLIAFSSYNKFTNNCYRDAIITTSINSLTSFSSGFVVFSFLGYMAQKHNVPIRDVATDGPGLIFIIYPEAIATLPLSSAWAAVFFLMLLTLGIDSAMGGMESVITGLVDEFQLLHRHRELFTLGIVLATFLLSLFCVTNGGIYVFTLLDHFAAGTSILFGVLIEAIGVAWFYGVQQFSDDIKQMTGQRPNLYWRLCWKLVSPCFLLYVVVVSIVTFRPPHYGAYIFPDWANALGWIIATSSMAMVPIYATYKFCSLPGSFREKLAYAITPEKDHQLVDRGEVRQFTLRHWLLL
Sequence of norepinephrine transporter (Q9WTR4 1-597): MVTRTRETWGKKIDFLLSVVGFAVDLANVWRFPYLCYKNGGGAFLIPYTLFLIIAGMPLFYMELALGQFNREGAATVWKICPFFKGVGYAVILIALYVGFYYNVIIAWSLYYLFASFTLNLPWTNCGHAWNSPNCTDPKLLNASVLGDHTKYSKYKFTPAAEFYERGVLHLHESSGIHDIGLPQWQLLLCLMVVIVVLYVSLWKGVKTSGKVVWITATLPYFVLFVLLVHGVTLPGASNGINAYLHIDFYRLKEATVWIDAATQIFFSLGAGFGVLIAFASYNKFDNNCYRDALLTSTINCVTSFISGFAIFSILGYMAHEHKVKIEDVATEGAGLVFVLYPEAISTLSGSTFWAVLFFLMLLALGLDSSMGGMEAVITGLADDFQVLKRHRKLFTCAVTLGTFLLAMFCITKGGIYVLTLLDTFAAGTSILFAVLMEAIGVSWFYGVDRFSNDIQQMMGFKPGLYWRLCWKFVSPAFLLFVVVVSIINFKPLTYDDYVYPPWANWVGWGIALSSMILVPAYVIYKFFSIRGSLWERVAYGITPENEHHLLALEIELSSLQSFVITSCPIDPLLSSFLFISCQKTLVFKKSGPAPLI
Sequence of serotonin transporter (P31652 whole entry): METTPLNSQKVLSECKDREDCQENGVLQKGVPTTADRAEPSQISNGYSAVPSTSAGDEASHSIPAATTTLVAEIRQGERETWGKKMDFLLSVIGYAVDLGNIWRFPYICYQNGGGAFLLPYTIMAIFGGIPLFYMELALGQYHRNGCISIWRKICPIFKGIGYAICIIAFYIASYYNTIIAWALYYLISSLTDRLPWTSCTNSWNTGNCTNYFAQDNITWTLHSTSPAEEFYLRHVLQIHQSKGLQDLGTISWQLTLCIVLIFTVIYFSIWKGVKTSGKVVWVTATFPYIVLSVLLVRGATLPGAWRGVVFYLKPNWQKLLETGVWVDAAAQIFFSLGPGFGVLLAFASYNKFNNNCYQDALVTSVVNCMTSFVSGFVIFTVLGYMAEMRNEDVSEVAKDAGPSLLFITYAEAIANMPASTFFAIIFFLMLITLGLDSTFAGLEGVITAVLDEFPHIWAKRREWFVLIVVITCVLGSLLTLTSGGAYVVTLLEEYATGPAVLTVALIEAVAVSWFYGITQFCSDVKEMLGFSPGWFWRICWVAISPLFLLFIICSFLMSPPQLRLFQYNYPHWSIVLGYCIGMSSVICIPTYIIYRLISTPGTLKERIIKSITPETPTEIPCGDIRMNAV

Turning to `CCc1ccc(C2CCN(C)CC2C(=O)OC)cc1` (single isomer, unassigned; (-)) [Compound 81, (−)-Methyl 4β-(4-Ethylphenyl)-1-methylpiperidine-3β-carboxylate], the IC50 was 1690 nM on dopamine transporter [1] (setting [4]); above 10000 nM in data set [2] (setting [5]); 15700 nM at serotonin transporter (5-HTT IC50 (nm), Table 2).

Turning to `COC(=O)[C@@H]1CN(C)CC[C@@H]1c1ccccc1` [Compound 10, (−)-Methyl 1-Methyl-4β-phenylpiperidine-3β-carboxylate], the IC50 at dopamine transporter [1] (DAT IC50 (nm), Table 2) amounted to 797 nM; at dopamine transporter [1] (setting [6]), 769 ± 19 nM.

With `COC(=O)C1CN(C)CCC1c1ccc(Cl)cc1` (single isomer, unassigned; (+)) [Compound 4, (+)-Methyl 4β-(4-Chlorophenyl)-1-methylpiperidine-3β-carboxylate], the figures for the IC50 on dopamine transporter [3] (setting [7]) and on dopamine transporter [3] (setting [8]) were 5090 nM and 5090 ± 172 nM, respectively.

With `Cc1noc(C2CN(C)CCC2c2ccc(Cl)cc2)n1` (single isomer, unassigned; (+)) [Compound 56], the IC50 is 172 nM on dopamine transporter [1] (setting [4]), 1130 nM in data set [2] (setting [5]) and above 10000 nM at serotonin transporter (setting [9]).

`C=Cc1ccc(C2CCN(C)CC2C(=O)OC)cc1` (single isomer, unassigned; (+)) [Compound 65, (+)-Methyl 4β-(4-Vinylphenyl)-1-methylpiperidine-3α-carboxylate] displayed an IC50 at serotonin transporter (5-HTT IC50 (nm), Table 2) of 55700 nM.

With `CN1CCC(c2ccc(Cl)cc2)C(CO)C1` (single isomer, unassigned; (+)) [Compound 6, (+)-4β-(4-Chlorophenyl)-3β-(hydroxymethyl)-1-methylpiperidine], the IC50 at dopamine transporter [1] (DAT IC50 (nm), Table 2) is 442 nM; on dopamine transporter [1] (setting [6]) it was 442 ± 32 nM.

Regarding `CCC[C@@H]1CN(C)CC[C@@H]1c1ccc(Cl)cc1` [Compound 9, (−) 4β-(4-Chlorophenyl)-1-methyl-3β-n-propylpiperidine], the IC50 turned out to be 3 nM on dopamine transporter [1] (setting [4]); 3 ± 0.5 nM at dopamine transporter [1] (setting [10]); 3 nM at dopamine transporter [1] (read-out: binding affinity); 8 nM on dopamine transporter [3] (setting [7]); 8.3 ± 0.6 nM at dopamine transporter [3] (setting [8]). Moreover, the “fold more potent than cocaine in binding affinity” value at dopamine transporter [1] (relative to cocaine) is listed as 33 fold. In addition, the “fold more potent than cocaine in inhibition of dopamine uptake” value on dopamine transporter [3] (relative to cocaine) stood at 29 fold.

As a reminder, the melting point is the temperature, or range, at which the solid turns liquid. With `COC(=O)C1CN(Cc2ccccc2)CCC1c1ccc(Cl)cc1` (single isomer, unassigned; (-)) [Compound 47, (−)-Methyl 4β-(4-Chlorophenyl)-1-benzylpiperidine-3β-carboxylate], the melting point was 119 to 121 °C. Also, the IC50 at dopamine transporter [1] (DAT IC50 (nm), Table 2) amounted to 917 nM.

On to `CC(=O)OCC1CN(C)CCC1c1ccc(Cl)cc1` (single isomer, unassigned; (+)) [Compound 8, (+)-3β-(Acetoxymethyl)-4β-(4-chlorophenyl)-1-methylpiperidine], for which the IC50 at dopamine transporter [1] (DAT IC50 (nm), Table 2) came out at 928 nM; on dopamine transporter [1] (setting [6]), 928 ± 43 nM; at dopamine transporter [3] (setting [7]), 2030 nM; at dopamine transporter [3] (setting [8]), 2030 ± 82 nM.

As to `CN1CCC(c2ccc(Cl)cc2)C(C(=O)Oc2ccccc2)C1` (single isomer, unassigned; (-)) [Compound 60, (−)-Phenyl 4β-(4-Chlorophenyl)-1-methylpiperidine-3b-carboxylate], the IC50 at dopamine transporter [1] (DAT IC50 (nm), Table 2) stood at 39 nM.

In the case of `CN1CC[C@H](c2ccc(Cl)cc2)[C@@H](CCCO)C1` [Compound 54], the IC50 on dopamine transporter [1] (DAT IC50 (nm), Table 2) worked out at 15 nM; in data set [2] it was 563 nM; at serotonin transporter it was 2810 nM.

`CN1CC[C@H](c2ccc(Cl)cc2)[C@H](CO)C1` [Compound 5, (−)-4β-(4-Chlorophenyl)-3β-(hydroxymethyl)-1-methylpiperidine]: the IC50 on dopamine transporter [1] (DAT IC50 (nm), Table 2) was found to be 75 nM; at dopamine transporter [1] (setting [6]), 75.3 ± 6.2 nM; at dopamine transporter [3] (setting [7]) it was 49 nM; at dopamine transporter [3] (setting [8]), 49 ± 3 nM.

`CN1CCC(c2ccc(Cl)cc2)C(C(=O)Oc2ccccc2)C1` (single isomer, unassigned; (+)) [Compound 59, (+)-Phenyl 4β-(4-Chlorophenyl)-1-methylpiperidine-3α-carboxylate]: the IC50 on dopamine transporter [1] (DAT IC50 (nm), Table 2) was found to be 1460 nM; in data set [2] it was 56500 nM; on serotonin transporter (5-HTT IC50 (nm), Table 2), 25100 nM.

`COC(=O)C1(C)CN(C)CCC1c1ccc(Cl)cc1` (single isomer, unassigned; (-)) [Compound 49, (−)-Methyl 4β-(4-Chlorophenyl)-3β-methyl-1-methylpiperidine-3b-carboxylate] yielded an IC50 on dopamine transporter [1] (DAT IC50 (nm), Table 2) of 1970 nM.

Regarding `CCc1ccc(C2CCN(C)CC2C(=O)OC)cc1I` (single isomer, unassigned; (+)) [Compound 68, (+)-Methyl 4β-(4-Ethyl-3-iodophenyl)-1-methylpiperidine-3α-carboxylate], the IC50 on dopamine transporter [1] (DAT IC50 (nm), Table 2) came to 1420 nM.

On to `COC(=O)[C@@H]1CN(C)CC[C@@H]1c1ccc(Cl)cc1` (racemic) [Compound 1, (±)-cis-Methyl 4-(4-Chlorophenyl)-1-methylpiperidine-3-carboxylate], for which the melting point was in the range of 98 to 99 °C. Further, the IC50 on dopamine transporter [1] (DAT IC50 (nm), Table 2) is 22 nM. Moreover, the IC50 at dopamine transporter [1] (setting [6]) turned out to be 53.7 ± 1.9 nM. At dopamine transporter [3] (setting [8]), the IC50 stood at 37.8 ± 7.9 nM.

On to `COC(=O)[C@H]1CN(C)CC[C@@H]1c1ccc(Cl)cc1` [Compound 11, (+)-Methyl 4β-(4-Chlorophenyl)-1-methylpiperidine-3α-carboxylate], for which the IC50 on dopamine transporter [1] (setting [4]) was 57 nM; at dopamine transporter [1] (setting [10]), 57.3 ± 8.1 nM; at dopamine transporter [3] (setting [7]) it was 34 nM; on dopamine transporter [3] (setting [8]), 34.6 ± 3.2 nM; in data set [2] it was 4200 nM; at serotonin transporter (5-HTT IC50 (nm), Table 2) it was 1620 nM.

With `COC(=O)C1CN(C)CCC1c1ccc(Cl)cc1` (single isomer, unassigned; (-)) [Compound 12, (−)-Methyl 4β-(4-Chlorophenyl)-1-methylpiperidine-3α-carboxylate], the IC50 on dopamine transporter [1] (DAT IC50 (nm), Table 2) came to 653 nM; at dopamine transporter [1] (setting [6]), 653 ± 38 nM; at dopamine transporter [3] (setting [7]), 195 nM; at dopamine transporter [3] (setting [8]) it was 195 ± 8 nM.

Compound `COC(=O)C1CN(C)CCC1c1ccc(Cl)cc1` (racemic) [1 · HCl] came in with an IC50 on dopamine transporter [1] (DAT IC50 (nm), Table 2) of 53 nM.

Turning to `CN1CCC(c2ccc(Cl)cc2)C(c2nc(-c3ccccc3)no2)C1` (single isomer, unassigned; (+)) [Compound 58], the IC50 at dopamine transporter [1] (DAT IC50 (nm), Table 2) was found to be 289 nM; at serotonin transporter, 7400 nM.

Compound `COC(=O)C1CN(S(=O)(=O)c2ccccc2)CCC1c1ccc(Cl)cc1` (single isomer, unassigned; (-)) [Compound 46, (−)-Methyl 4β-(4-Chlorophenyl)-1-phenylsulfonyl-piperidine-3β-carboxylate] had a melting point of 76 to 78 °C. Besides, on dopamine transporter [1] (DAT IC50 (nm), Table 2), the IC50 turned out to be 26100 nM. The same compound registered an IC50 in data set [2] above 10000 nM.

As to `COC(=O)C1CN(C)CCC1c1ccc2ccccc2c1` (racemic) [Compound 75, (±)-Methyl 4-(2-Naphthyl)-1-methylpiperidine-3-carboxylate], the IC50 is 78 nM at dopamine transporter [1] (DAT IC50 (nm), Table 2); 607 nM in data set [2]; 366 nM on serotonin transporter (5-HTT IC50 (nm), Table 2).

For the compound `CCCC1CN(C)CCC1c1ccc(Cl)cc1` (single isomer, unassigned; (+)) [Compound 15, (+) 4β-(4-Chlorophenyl)-1-methyl-3α-n-propylpiperidine], the IC50 at dopamine transporter [1] (setting [10]) was determined as 17.2 ± 0.5 nM; at dopamine transporter [3] (setting [7]) it was 23 nM; on dopamine transporter [3] (setting [8]) it was 23.2 ± 2.2 nM; in data set [2] (setting [5]), 183 nM; at serotonin transporter (setting [9]), 155 nM.

For `CN1CCC(c2ccc(Cl)cc2)C(CCCS)C1` (single isomer, unassigned; (+)) [Compound 55], the IC50 on dopamine transporter [1] (setting [4]) came to 28 nM.

For `CCc1ccc(C2CCN(C)CC2C(=O)OC)cc1I` (single isomer, unassigned; (-)) [Compound 66, (−)-Methyl 4β-(4-Ethyl-3-iodophenyl)-1-methylpiperidine-3β-carboxylate], the IC50 at dopamine transporter [1] (DAT IC50 (nm), Table 2) was determined as 4410 nM.

`CCc1ccc(C2CCN(C)CC2C(=O)OC)cc1` (single isomer, unassigned; (+)) [Compound 67, (+)-Methyl 4β-(4-Ethylphenyl)-1-methylpiperidine-3α-carboxylate]: at dopamine transporter [1] (setting [4]), the IC50 was 7340 nM.

Regarding `CN1CCC(c2ccc(Cl)cc2)C(CO)C1` (single isomer, unassigned; (+)) [Compound 13, (+)-4β-(4-Chlorophenyl)-3α-(hydroxymethyl)-1-methylpiperidine], the IC50 on dopamine transporter [1] (DAT IC50 (nm), Table 2) was 240 nM; on dopamine transporter [1] (setting [6]) it was 240 ± 18 nM; on dopamine transporter [3] (setting [7]), 864 nM; at dopamine transporter [3] (setting [8]), 683 ± 47 nM.

Consider `CC(=O)OCC1CN(C)CCC1c1ccc(Cl)cc1` (single isomer, unassigned; (+)) [Compound 14, (+)-3α-(Acetoxymethyl)-4β-(4-chlorophenyl)-1-methylpiperidine], for which the IC50 at dopamine transporter [1] (DAT IC50 (nm), Table 2) is 461 nM; at dopamine transporter [1] (setting [6]), 461 ± 11 nM.

Compound `CN1CC[C@H](c2ccc(Cl)cc2)[C@@H](CCCF)C1` [Compound 80, (+)-4β-(4-Chlorophenyl)-3α-(3-fluoropropyl)-1-methylpiperidine] registered an IC50 at dopamine transporter [1] (DAT IC50 (nm), Table 2) of 28 nM.
